Source: patent US7491518B2, “Method of elevating yield of oligosaccharides containing α-galactosyl and anti-candida compositions” (Amano Enzyme Inc., priority 2000, dated 2009)

How the values were obtained:
Candida microorganism = conditions: in vitro and in vivo; cited from earlier work
[1] = cited from earlier work
[2] = tested on: Candida albicans IFM40009; assay: Persistence of orally administered Candida microorganism in the intestinal tract of mice (viable cell count in cecum and colon); assay type: in vivo; conditions: mouse, 100 mg/animal oral once a day for two weeks, 1 week after forcible administration of Candida suspension
Description: A Candida microorganism was given forcibly via an oral administration to a mouse on diet with the oligosacchride containing α-galactosyl obtained in EXAMPLE 3 to test the persistence of the Candida microorganism in an intestinal tract, whereby assessing the anti-candida effect of the oligosacchride containing α-galactosyl.
(Methods) A test mouse was a 4-week old male mouse of Crj:CD-1 (ICR) line (NIPPON CHARLES RIVER). A preliminary housing was provided to the animal for 1 week while being allowed to access a basal diet and a distilled water ad libitum. The basal diet was a solid chow for mice (MF: ORIENTAL YEAST). After the preliminary housing, the basal diet and the distilled water were given ad libitum continuously, and a control group fed with a sucrose, a positive control group fed with a raffinose, and a treatment group fed with an oligosacchride containing α-galactosyl were provided (5 animals per group) to conduct a forcible oral administration at 100 mg/animal via an oral gavage for two weeks on a once-a-day basis. […]
The viable cell of the Candida microorganism was counted by applying a Candida microorganism suspension diluted appropriately with a physiological saline onto a Candida GS (EIKEN KAGAKU) plate medium and incubating at 37° C. for 42 to 48 hours followed by counting the colonies formed. […]

[3] = target: toxin produced by Clostridium difficile (Clostridioides difficile, UniProt P16154); conditions: cited from earlier work
pathogenic E.coli 0157 = conditions: cited from earlier work

Compound: OC[C@H]1O[C@H](OC[C@H]2O[C@H](O[C@]3(CO)O[C@H](CO)[C@@H](O)[C@@H]3O)[C@H](O)[C@@H](O)[C@@H]2O)[C@H](O)[C@@H](O)[C@H]1O [raffinose]
- effects on a Candida microorganism (Candida microorganism): inhibitory and eradicative effects
- effect on atopic dermatitis ([1]; in vivo): exerted an effect
- side effects observed with an antifungal agent (transient exacerbation of rash, digestive organ signs) ([1]; oral administration): does not cause side effects
- viable cell count of Candida microorganism in the cecum [2]: not changed
- viable cell count of Candida microorganism in the colon ([2]; compared with sucrose control group): lower

Compound: OC[C@H]1O[C@H](O[C@@H]2[C@@H](O)[C@@H](O)O[C@H](CO)[C@@H]2O)[C@H](O)[C@@H](O)[C@H]1O [α-1,3-galactobiose]
- effect on toxin produced by Clostridium difficile [3]: neutralizing effect

Compound: OC[C@H]1O[C@H](O[C@@H]2[C@H](O)[C@@H](O)C(O)O[C@@H]2CO)[C@H](O)[C@@H](O)[C@H]1O (stereo partly drawn) [α-1,4 galactobiose]
- effect on pathogenic E.coli 0157 (pathogenic E.coli 0157): inhibitory and therapeutic effect
